In patent US4120864A, “1,2,4-4H-triazole derivatives” (Rohm and Haas Company, priority 1972, dated 1978):
Structures can show the parent of a compound that is named as a salt. Where two headings read alike, the source gives them in different places.

Legend:
Format in all cases: in vivo
[1] = test system: wheat leaf rust, Puccinia recondita; test: whole plant or invertebrate; conditions: foliar; for pest or weed control at 280.212 g/ha: read-out: % Control (without rain), foliar, 0.25 lb.; for pest or weed control at 1120.85 g/ha: read-out: % Control (without rain), foliar, 1 lb.
[2] = test system: wheat leaf rust, Puccinia recondita; test: whole plant or invertebrate; conditions: foliar; for pest or weed control at 280.212 g/ha: read-out: % Control (with 1" of rain), foliar, 0.25 lb., 1" of rain; for pest or weed control at 1120.85 g/ha: read-out: % Control (with 1" of rain), foliar, 1 lb., 1" of rain
[3] = test system: wheat leaf rust, Puccinia recondita
[4] = test system: wheat leaf rust, Puccinia recondita; test: Foliar systemic activity on leaf rust
Text: Another type of systemic test was run in which pots of approximately 5 inch high wheat plants were sprayed with varying concentrations of the test compound. Thirty-six hours later they were sprayed six minutes in a rain machine which amounted to about one inch of normal rainfall. The plants were then placed in a greenhouse for 7 days and then inoculated with a spore suspension of wheat leaf rust, Puccinia recondita. About 7 days later lesion counts were made on ten leaves representing the sprayed leaves and new growth from each replicate and compared with similar pots of wheat plants which were untreated with a chemical and the percent disease control determined. Disease control on the new growth is a measure of systemic activity. The commercial product known by the trademarked name Plantvax, which is 2,3-dihydro-5-carboxanilido-6-methyl-1,4-oxathiin-4,4-dioxide, was used as a standard.

SMILES | pest or weed control at 280.212 g/ha [1] | pest or weed control at 1120.85 g/ha [1] | pest or weed control at 280.212 g/ha [2] | pest or weed control at 1120.85 g/ha [2] | % Systemic Wheat Leaf Rust Control ([3]; 2.5 ppm in soil) | % Systemic Wheat Leaf Rust Control ([3]; 5 ppm in soil) | % Systemic Wheat Leaf Rust Control ([3]; 10 ppm in soil) | % Rust Control, New growth ([4]; 1/2 lb./100 gal.) | % Rust Control, Sprayed Leaf ([4]; 1/2 lb./100 gal.) | % Rust Control, New growth ([4]; 1/6 lb./100 gal.) | % Rust Control, Sprayed Leaf ([4]; 1/6 lb./100 gal.) | % Rust Control, New growth ([4]; 1/12 lb./100 gal.) | % Rust Control, Sprayed Leaf ([4]; 1/12 lb./100 gal.) | % Control (without rain) ([1]; 0.25 lb.) | % Control (without rain) ([1]; 1 lb.) | % Control (with 1" of rain) ([2]; 0.25 lb.) | % Control (with 1" of rain) ([2]; 1 lb.)
CCCCn1cnnc1 [Example 3, 4-n-butyl-1,2,4-triazole] | 100% | 100% | 100% | 100% | 100% | 100% | 100% | 100% | 99% | 98% | 99% | 85% | 97% |  |  |  | 
c1ccc(Cn2cnnc2)cc1 [Example 49, 4-benzyl-1,2,4-triazole] | 95% | 100% | 100% | 100% | 96% | 98% | 99% | 87% | 99% | 54% | 76% | 46% | 42% |  |  |  | 
CCCCCn1cnnc1S [Example 78, 3-mercapto-4-n-pentyl-1,2,4-triazole] | 97% | 100% | 100% | 100% | 97% | 97% | 97% | 92% | 98% | 79% | 96% | 57% | 91% |  |  |  | 
CCCCCCn1cnnc1S [Example 79, 3-mercapto-4-n-hexyl-1,2,4-triazole] | 100% | 100% | 100% | 100% | 0% | 0% | 54% | 65% | 96% | 48% | 88% | 38% | 85% |  |  |  | 
Sc1nncn1Cc1ccccc1 [Example 84, 3-mercapto-4-benzyl-1,2,4-triazole] | 100% | 100% | 100% | 100% | 0% | 34% | 64% | 54% | 78% | 34% | 63% | 36% | 54% |  |  |  | 
CCCCn1c(S)nnc1C(=O)O [Example 95, triethanolamine salt of 3-mercapto-4-n-butyl-5-carboxy-1,2,4-triazole] |  |  |  |  | 98% | 99% | 100% | 90% | 90% | 75% | 78% | 63% | 46% | 98% | 99% | 100% | 100%
CCCCn1c(S)nnc1C(=O)OCC [Example 97] | 100% | 100% | 100% | 100% | 93% | 95% | 100% | 54% | 86% | 75% | 73% | 67% | 81% |  |  |  | 
CCCCn1c(SC(=O)NC)nnc1C(=O)O [Example 99, 3-methylcarbamoylmercapto-4-n-butyl 5-carboxy-1,2,4-triazole] | 99% | 99% | 100% | 100% | 96% | 99% | 100% | 82% | 69% | 69% | 74% | 56% | 81% |  |  |  | 
CCCCn1c(SC(=O)NC)nnc1C(=O)O [Example 100, triethanolamine salt of 3 methyl-carbamoylmercapto-4-n-butyl-5-carboxy-1,2,4-triazole] |  |  |  |  | 89% | 99% | 99% | 79% | 79% | 63% | 79% | 54% | 57% | 100% | 100% | 100% | 100%
CCCCn1cnn(CCC#N)c1=S [Example 106, 2-(2-cyanoethyl)-4-n-butyl-1,2,4-triazoline-3-thione] | 100% | 100% | 99% | 100% | 82% | 86% | 92% |  |  |  |  |  |  |  |  |  | 
CCCCn1cnnc1SCCOCC [Example 107, 3-(2-ethoxyethylmercapto)-4-n-butyl-1,2,4-triazole] | 100% | 100% | 100% | 100% | 52% | 85% | 89% | 61% | 73% | 23% | 27% | 17% | 25% |  |  |  | 
CCCCn1cnnc1SC(=O)c1ccco1 [Example 124, 3-furoylmercapto-4-n-butyl-1,2,4-triazole] | 100% | 100% | 100% | 100% | 94% | 99% | 99% |  |  |  |  |  |  |  |  |  | 
CCCCn1cnnc1SCC(=O)c1ccc(OC)cc1 [Example 125, 3-(p-methoxyphenacylmercapto)-4-n-butyl-1,2,4-triazole] | 50% | 60% | 20% | 30% | 55% | 68% | 44% |  |  |  |  |  |  |  |  |  | 
